From patent US20230339970A1, “CASEIN KINASE 1 DELTA MODULATORS” (priority 2020, published 2023)

Experiments:
human CSNK1D = biological target: T1, human CSNK1D (Homo sapiens, UniProt P48730); assay: Whole Cell nBRET CSNK1D Binding Assay; conditions: living CHO cells stably expressing human CSNK1D tagged with nanoluciferase; NanoBret tracer 130 nM; 2 hours at 37 C
T1 construct: expressed in transfected cells

[1] = biological target: T2, human recombinant GST cleaved CSNK1D (Homo sapiens, UniProt P48730); assay: Purified Enzyme Assay (ADP-Glo CSNK1D Kinase Assay); format: biochemical; conditions: 2 nM CSNK1D; peptide substrate 150 μM; ATP 20 μM; 45 minutes at room temperature
T2 construct: GST (cleaved yes); purchased University of Dundee clone DU 19064
Procedure, shortened: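 Percent activity derived from ADP-Glo quantification of ADP produced. Reactions: compound dose-response with human recombinant GST-cleaved CSNK1D, ATP and substrate peptide PLSRTL-pS-VASLPGL, incubated 45 min at room temperature.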

T2 sequence (P48730 whole entry): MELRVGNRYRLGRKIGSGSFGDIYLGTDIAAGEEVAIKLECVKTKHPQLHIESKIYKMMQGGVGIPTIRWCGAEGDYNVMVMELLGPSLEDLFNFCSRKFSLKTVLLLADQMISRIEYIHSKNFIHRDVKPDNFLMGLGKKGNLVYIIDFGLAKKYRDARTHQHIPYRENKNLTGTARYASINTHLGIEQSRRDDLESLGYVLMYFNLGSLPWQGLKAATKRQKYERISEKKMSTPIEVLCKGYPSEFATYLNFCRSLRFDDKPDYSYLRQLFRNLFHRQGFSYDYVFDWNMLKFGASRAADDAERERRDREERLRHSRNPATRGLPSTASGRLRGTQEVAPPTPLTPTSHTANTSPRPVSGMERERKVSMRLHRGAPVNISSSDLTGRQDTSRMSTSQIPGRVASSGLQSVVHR
T1 sequence (P48730 whole entry): as above

Row | IC50 (human CSNK1D) [nM] | IC50 [1] [nM] | Compound
1 | 21 | 2 | Fc1ccc(-c2nn3c(c2-c2ccnc4[nH]ncc24)OCC(F)(F)C3)cc1 [Example 467, 6,6-Difluoro-2-(4-fluorophenyl)-3-(1H-pyrazolo[3,4-b]pyridin-4-yl)-5,7-dihydropyrazolo[5,1-b][1,3]oxazine]
2 | 1 | 1 | Fc1ccc(-c2nn3c(c2-c2ccnc4[nH]ncc24)CCC2(C3)CC2(F)F)cc1 (single isomer, unassigned) [Example 325, (*R)-2,2-Difluoro-2′-(4-fluorophenyl)-3′-(1H-pyrazolo[3,4-b]pyridin-4-yl)-4′,5′-dihydro-7′H-spiro[cyclopropane-1,6′-pyrazolo[1,5-a]pyridine]]
3 | 73 | 6 | Cc1cc(-c2c(-c3ccc(F)cc3)nn3c2C[C@H]2C[C@H]23)c2cn[nH]c2n1 [Example 269]
4 | 46 | 5 | C[C@@H]1n2nc(-c3ccc(F)cn3)c(-c3ccnc4[nH]nc(Cl)c34)c2COC1(C)C (single isomer, unassigned) [Example 437, (*S)-3-(3-Chloro-1H-pyrazolo[3,4-b]pyridin-4-yl)-2-(5-fluoropyridin-2-yl)-6,6,7-trimethyl-6,7-dihydro-4H-pyrazolo[5,1-c][1,4]oxazine]
5 | 219 | 25 | [2H]C([2H])([2H])C1(C([2H])([2H])[2H])Cn2nc(-c3ccc(F)cn3)c(-c3c(Cl)c(C)nc4[nH]ncc34)c2CO1 [Example 407, 3-(5-Chloro-6-methyl-1H-pyrazolo[3,4-b]pyridin-4-yl)-2-(5-fluoropyridin-2-yl)-6,6-bis(methyl-d3)-6,7-dihydro-4H-pyrazolo[5,1-c][1,4]oxazine]
6 | 17 | 1 | Fc1ccc(-c2nn3c(c2-c2ccnc4[nH]nc(Cl)c24)OCC(F)(F)C3)cc1 [Example 470, 3-(3-Chloro-1H-pyrazolo[3,4-b]pyridin-4-yl)-6,6-difluoro-2-(4-fluorophenyl)-6,7-dihydro-5H-pyrazolo[5,1-b][1,3]oxazine]
7 | 40 | 3 | COCCC1(C)CCc2c(-c3ccnc4[nH]ncc34)c(-c3ccc(F)cn3)nn2C1 (single isomer, unassigned) [Example 318, (*S)-4-[2-(5-Fluoro-2-pyridyl)-6-(2-methoxyethyl)-6-methyl-5,7-dihydro-4H-pyrazolo[1,5-a]pyridin-3-yl]-1H-pyrazolo[3,4-b]pyridine]
8 | 49 | 3 | [2H]C([2H])([2H])C1(C([2H])([2H])[2H])Cc2c(-c3c(F)cnc4[nH]ncc34)c(-c3ccc(F)cn3)nn2C1 [Example 243, 5-Fluoro-4-[2-(5-fluoro-2-pyridyl)-5,5-bis(methyl-d3)-4,6-dihydropyrrolo[1,2-b]pyrazol-3-yl]-1H-pyrazolo[3,4-b]pyridine]
9 | 1190 | 92 | [2H]C([2H])([2H])[C@]1(C(F)(F)F)Cn2nc(-c3ccc(F)cn3)c(-c3c(F)c(C)nc4[nH]nc(C)c34)c2CO1 (single isomer, unassigned) [Example 430, (*R)-3-(5-Fluoro-3,6-dimethyl-1H-pyrazolo[3,4-b]pyridin-4-yl)-2-(5-fluoropyridin-2-yl)-6-(methyl-d3)-6-(trifluoromethyl)-6,7-dihydro-4H-pyrazolo[5,1-c][1,4]oxazine]
10 | 23 | 2 | Cc1cc(-c2c(-c3ccc(F)cn3)nn3c2CC(C)(C)C3)c2cn[nH]c2n1 [Example 238, 4-[2-(5-Fluoro-2-pyridyl)-5,5-dimethyl-4,6-dihydropyrrolo[1,2-b]pyrazol-3-yl]-6-methyl-1H-pyrazolo[3,4-b]pyridine]
11 | 330 | 8 | C[C@]1(C(F)(F)F)Cn2nc(-c3ccc(F)cn3)c(-c3ccn4nccc4c3)c2CO1 (single isomer, unassigned) [Example 414, (*R)-2-(5-Fluoropyridin-2-yl)-6-methyl-3-(pyrazolo[1,5-a]pyridin-5-yl)-6-(trifluoromethyl)-6,7-dihydro-4H-pyrazolo[5,1-c][1,4]oxazine]
12 | 1320 | 32 | Fc1ccc(-c2nn3c(c2-c2ccnc4[nH]ncc24)OCC2(C3)CC2(F)F)nc1 (single isomer, unassigned) [Example 479, (*R)-2,2-Difluoro-2′-(5-fluoropyridin-2-yl)-3′-1H-pyrazolo[3,4-b]pyridin-4-yl)-5′H,7′H-spiro[cyclopropane-1,6′-pyrazolo[5,1-b][1,3]oxazine]]
13 | 118 | 17 | CC1(C(F)(F)F)Cn2nc(-c3ccc(F)cc3)c(-c3ccnc4[nH]ncc34)c2CO1 (single isomer, unassigned) [Example 416, (*R)-2-(4-Fluorophenyl)-6-methyl-3-(1H-pyrazolo[3,4-b]pyridin-4-yl)-6-(trifluoromethyl)-6,7-dihydro-4H-pyrazolo[5,1-c][1,4]oxazine]

More lines, now with the values behind:

Row | Compound | IC50 (human CSNK1D) [nM] | IC50 [1] [nM]
14 | Fc1ccc(-c2nn3c(c2-c2ccnc4[nH]ncc24)CCC2C3C2(F)F)nc1 (racemic) [Example 58, (Racemic) 6,6-Difluoro-2-(5-fluoropyridin-2-yl)-3-(1H-pyrazolo[3,4-b]pyridin-4-yl)-5,5a,6,6a-tetrahydro-4H-cyclopropa[e]pyrazolo[1,5-a]pyridine] | 65 | 5
15 | Cc1cc(-c2c(-c3ccc(F)cn3)nn3c2CCC2C3C2(F)F)c2cn[nH]c2n1 (racemic) [Example 59, (Racemic) 6,6-Difluoro-2-(5-fluoropyridin-2-yl)-3-(6-methyl-1H-pyrazolo[3,4-b]pyridin-4-yl)-5,5a,6,6a-tetrahydro-4H-cyclopropa[e]pyrazolo[1,5-a]pyridine] | 82 | 4
16 | CC[C@@H]1Cn2nc(-c3ccc(F)cn3)c(-c3ccnc4[nH]ncc34)c2CO1 (single isomer, unassigned) [Example 95, (*R)-6-Ethyl-2-(5-fluoropyridin-2-yl)-3-(1H-pyrazolo[3,4-b]pyridin-4-yl)-6,7-dihydro-4H-pyrazolo[5,1-c][1,4]oxazine] | 557 | 19
17 | Cc1nc2[nH]ncc2c(-c2c(-c3ccc(F)cn3)nn3c2CCC3)c1F [Example 9, 5-Fluoro-4-(2-(5-fluoropyridin-2-yl)-5,6-dihydro-4H-pyrrolo[1,2-b]pyrazol-3-yl)-6-methyl-1H-pyrazolo[3,4-b]pyridine] | 60 | 12
18 | O=C1OCCn2nc(-c3ccc(F)cc3)c(-c3ccnc4[nH]ncc34)c21 [Example 181, 2-(4-Fluorophenyl)-3-(1H-pyrazolo[3,4-b]pyridin-4-yl)-6,7-dihydropyrazolo[5,1-c][1,4]oxazin-4-one] | 3240 | 32
19 | CC(=O)Nc1cc(-c2c(-c3ccc(F)cc3)nn3c2C[C@H](F)C3)ccn1 [Example 229, N-[4-[(5S)-5-Fluoro-2-(4-fluorophenyl)-5,6-dihydro-4H-pyrrolo[1,2-b]pyrazol-3-yl]-2-pyridyl]acetamide] | 2 | 1
20 | Fc1cnc(-c2nn3c(c2-c2ccnc4[nH]ncc24)CCCC3)c(F)c1 [Example 38, 4-[2-(3,5-Difluoro-2-pyridyl)-4,5,6,7-tetrahydropyrazolo[1,5-a]pyridin-3-yl]-1H-pyrazolo[3,4-b]pyridine] | 238 | 14
21 | CC1(C)Cn2nc(-c3cscn3)c(-c3ccnc4[nH]ncc34)c2CO1 [Example 124, 6,6-Dimethyl-3-(1H-pyrazolo[3,4-b]pyridin-4-yl)-2-(thiazol-4-yl)-6,7-dihydro-4H-pyrazolo[5,1-c][1,4]oxazine] | 343 | 17
22 | C[C@H]1n2nc(-c3ccc(F)cc3)c(-c3ccnc4[nH]ncc34)c2COC1(C)C (single isomer, unassigned) [Example 172] | 54 | 5
23 | Fc1cnc(-c2nn3c(c2-c2ccnc4[nH]ncc24)OCCC3)c(F)c1 [Example 188, 2-(3,5-Difluoro-2-pyridyl)-3-(1H-pyrazolo[3,4-b]pyridin-4-yl)-6,7-dihydro-5H-pyrazolo[5,1-b][1,3]oxazine] | 139 | 12
24 | Cc1cc(-c2c(-c3ccc(F)cc3)nn3c2CC[C@@H]3C)c2cn[nH]c2n1 [Example 17, 4-[(6S)-2-(4-Fluorophenyl)-6-methyl-5,6-dihydro-4H-pyrrolo[1,2-b]pyrazol-3-yl]-6-methyl-1H-pyrazolo[3,4-b]pyridine] | 12 | 1
25 | Cc1cc(-c2c(-c3ccc(F)cc3)nn3c2CCC3)c2cn[nH]c2n1 [Example 5, 4-(2-(4-Fluorophenyl)-5,6-dihydro-4H-pyrrolo[1,2-b]pyrazol-3-yl)-6-methyl-1H-pyrazolo[3,4-b]pyridine] | 22 | 1
26 | Fc1ccc(-c2nn3c(c2-c2ccnc4[nH]ncc24)COCC32CC2)cc1 [Example 106, 2′-(4-Fluorophenyl)-3′-(1H-pyrazolo[3,4-b]pyridin-4-yl)-4′H,6′H-spiro[cyclopropane-1,7′-pyrazolo[5,1-c][1,4]oxazine]] | 137 | 9
27 | CC1(C)Cn2nc(-c3ccncc3Cl)c(-c3ccnc4[nH]ncc34)c2CO1 [Example 162, 2-(3-Chloropyridin-4-yl)-6,6-dimethyl-3-(1H-pyrazolo[3,4-b]pyridin-4-yl)-6,7-dihydro-4H-pyrazolo[5,1-c][1,4]oxazine] | > 10000 | 143
28 | Fc1ccc(-c2nn3c(c2-c2ccnc4[nH]ccc24)COCC3)nc1 [Example 1, 2-(5-Fluoro-2-pyridyl)-3-(1H-pyrrolo[2,3-b]pyridin-4-yl)-6,7-dihydro-4H-pyrazolo[5,1-c][1,4]oxazine] | 81 | 10
